Experimental data published in the NIST ThermoML archive (doi:10.1016/j.jct.2011.08.008).
± gives the expanded uncertainty stated by the source.

Assay: xn = mol fraction of the nth substance listed
Conditions: 101 kPa, Liquid, Vibrating tube method

CCCCn1cc[n+](C)c1.[Cl-] [1-butyl-3-methylimidazolium chloride] + OCCO
mass density [kg/m3]
Conditions	298.15 K	308.15 K	318.15 K
x1 = 0.0132	1108.21 ± 0.53	1101.08 ± 0.53	1093.97 ± 0.52
x1 = 0.0294	1106.1 ± 0.54	1099.21 ± 0.53	1092.21 ± 0.53
x1 = 0.0484	1104.02 ± 0.54	1097.19 ± 0.53	1090.29 ± 0.53
x1 = 0.1028	1098.95 ± 0.55	1092.29 ± 0.54	1085.61 ± 0.54
x1 = 0.2101	1092.39 ± 0.58	1085.44 ± 0.57	1079.22 ± 0.57
x1 = 0.3094	1088.58 ± 0.61	1081.93 ± 0.6	1075.58 ± 0.6
x1 = 0.4202	1085.81 ± 0.66	1079.23 ± 0.65	1072.98 ± 0.64
x1 = 0.4947	1084.46 ± 0.69	1078.12 ± 0.68	1072 ± 0.68
x1 = 0.5992	1083.24 ± 0.75	1077.18 ± 0.74	1071.11 ± 0.73
x1 = 0.7117	1082.47 ± 0.81	1076.69 ± 0.8	1070.76 ± 0.79
x1 = 0.8143	1082.35 ± 0.88	1076.51 ± 0.87	1070.75 ± 0.86
x1 = 0.9126	1082.27 ± 0.95	1076.49 ± 0.94	1070.88 ± 0.93
x1 = 1	1082.01 ± 1	1076.51 ± 1	1071.04 ± 1

CCCCn1cc[n+](C)c1.COS(=O)(=O)[O-] [1-butyl-3-methylimidazolium methyl sulfate] + OCCO
mass density [kg/m3]
Conditions	298.15 K	308.15 K	318.15 K
x1 = 0.0052	1110.66 ± 0.53	1103.5 ± 0.53	1096.12 ± 0.52
x1 = 0.0512	1119.06 ± 0.55	1111.91 ± 0.55	1104.2 ± 0.54
x1 = 0.1106	1128.96 ± 0.58	1121.84 ± 0.57	1114.04 ± 0.57
x1 = 0.2135	1145.36 ± 0.63	1138.27 ± 0.62	1130.75 ± 0.62
x1 = 0.3018	1156.55 ± 0.68	1149.5 ± 0.67	1142.35 ± 0.66
x1 = 0.4059	1167.63 ± 0.74	1160.69 ± 0.74	1153.59 ± 0.73
x1 = 0.5066	1176.9 ± 0.81	1170.01 ± 0.81	1162.97 ± 0.8
x1 = 0.6163	1185.67 ± 0.9	1178.75 ± 0.89	1171.77 ± 0.88
x1 = 0.7	1191.66 ± 0.97	1184.71 ± 0.96	1177.89 ± 0.95
x1 = 0.8408	1199.42 ± 1.1	1192.62 ± 1.1	1185.85 ± 1.1
x1 = 0.9244	1202.97 ± 1.2	1196.25 ± 1.2	1189.52 ± 1.2
x1 = 1	1205.84 ± 1.3	1199.25 ± 1.3	1192.7 ± 1.2

CCCCCCCC[n+]1ccn(C)c1.[Cl-] [1-methyl-3-octylimidazolium chloride] + OCCO
mass density [kg/m3]
Conditions	298.15 K	308.15 K	318.15 K
x1 = 0.0077	1106.07 ± 0.54	1098.89 ± 0.53	1091.83 ± 0.53
x1 = 0.0589	1085.93 ± 0.53	1078.94 ± 0.53	1072.21 ± 0.52
x1 = 0.119	1068.7 ± 0.53	1061.98 ± 0.53	1055.33 ± 0.52
x1 = 0.2112	1050.79 ± 0.54	1044.34 ± 0.54	1037.95 ± 0.53
x1 = 0.2985	1039.53 ± 0.56	1033.27 ± 0.55	1026.92 ± 0.55
x1 = 0.4021	1030.4 ± 0.59	1024.26 ± 0.58	1017.91 ± 0.57
x1 = 0.5118	1023.63 ± 0.63	1017.52 ± 0.62	1011.2 ± 0.61
x1 = 0.6041	1019.49 ± 0.66	1013.41 ± 0.66	1007.18 ± 0.65
x1 = 0.6999	1016.21 ± 0.71	1010.14 ± 0.7	1003.94 ± 0.69
x1 = 0.7837	1013.92 ± 0.75	1007.87 ± 0.74	1001.74 ± 0.73
x1 = 0.8328	1012.75 ± 0.78	1006.75 ± 0.77	1000.65 ± 0.76
x1 = 0.9583	1010.27 ± 0.85	1004.34 ± 0.84	998.43 ± 0.83
x1 = 1	1009.56 ± 0.88	1003.74 ± 0.87	997.92 ± 0.86
